The conditions of the data set: Liquid, Ebulliometric method (Recirculating still).

± gives the expanded uncertainty stated by the source.

The term vapor or sublimation pressure denotes the equilibrium pressure above the liquid or solid. In the case of `CC(F)F` [1,1-difluoroethane], the “vapor or sublimation pressure” value is on record as 264 ± 2 kPa (273.15 K); 372 ± 2 kPa (283.15 K); 512 ± 3 kPa (293.15 K); 689 ± 3 kPa (303.15 K); 909 ± 4 kPa (313.15 K); 1176 ± 5 kPa (323.15 K).
Take `CCCC` [butane]: the “vapor or sublimation pressure” value is given as 104 ± 2 kPa (273.15 K); 150 ± 2 kPa (283.15 K); 208 ± 2 kPa (293.15 K); 284 ± 2 kPa (303.15 K); 378 ± 3 kPa (313.15 K); 495 ± 3 kPa (323.15 K).

The values are drawn from the NIST ThermoML archive (doi:10.1016/j.fluid.2007.07.010).
